{"source": "patent US11932636B2", "about": "“RAD51 inhibitors” (Cyteir Therapeutics, Inc., priority 2019, dated 2024)"}
{"test_system": "Daudi cells (AID positive)", "assay": "Compound primary screening: cell death in AID positive Daudi cells (Cell-Titer Glo, Day 7)", "type": "cell-based", "details": "Homo sapiens, 168 h; Daudi cells, AID positive; cell death on Day 7, Cell-Titer Glo; read-out: Cellular activity in AID + (Daudi)", "procedure": "Example 149. Compound Primary Screening\nAID expressing cells are dependent upon RAD51 for survival; inhibiting RAD51 in AID positive cells results in a cytotoxic effect.\nA 96 well u-bottom plate was prepared by writing the experiment number, plate number, date and initials in the top right corner of the plate lid. With a sterile 300 ml reservoir, and 25 ml serological pipette, evaporation buffer media was pipetted into reservoir in 25 ml increments. Using the liquid handler, 150 ul of evaporation buffer media was pipetted from reservoir into rows A and H, and Columns 1 and 12 of the 96 well u-bottom plate. Cell cultures were counted to obtain the density of cells per ml, and the culture viability. The cell density information was used to obtain 1,000,000 cells from culture using a 5 mL serological pipette into an epi tube. The cell density information from the culture was used to calculate the number of cells and volume of media needed for the assay to seed 1250 cells in 130 ul of media per available culture well in the 96 well u-bottom plate. Rows B through F were used for cells (50 wells in total), with row G left for an empty media control. The calculation was overestimated by 10 mL to account for the dead volume in the 300 ml reservoir. Once the media volume was calculated, the appropriate volume of media was pipetted in 25 mL increments into the 250 mL bottle using a 25 mL serological pipette. The 250 ml bottle was capped tightly, and placed into a 37° C. water bath for 2 minutes. While the culture media was warming, 10 mL of fresh media was pipetted from the 500 mL culture media bottle into a sterile 25 mL reservoir. Using the Eppendorf multichannel pipette, 130 ul of media was pipetted from the 25 mL reservoir into row G of the 96 well u-bottom plate. Once the 250 mL bottle of media was warmed, the volume of culture needed was pipetted into the bottle, and mixed gently with a 25 mL serological pipette as to not create bubbles, and then the contents of the bottle were pipetted into a new 300 mL reservoir. Using the liquid handler, 130 ul of culture was pipetted from the 300 mL reservoir into rows B through F of the 96 well u-bottom plate. Once the culture was added, the plate was placed into a 37° C. incubator until the compound master plate was prepared for use.\nTwo 96 well u-bottom plates were prepared by writing the master plate name in the upper right corner of the plate lid. Labeling one DMSO master and the other Media Master. The compounds of interest were obtained from the laboratory freezer, and placed into a 25 well storage box with a lid, and set the box aside. The compounds were vortexed after thawing but before use. Using an automatic multichannel pipette, 20 ul of 100% DMSO was pipetted into wells B3-B11 through G3-G11 of the DMSO master plate. For each compound on the master plate, 50 ul of the compound were pipetted in the appropriate well of row 2 (reference plate map to determine appropriate well). A serial dilution was prepared beginning by aspirating 20 ul from row 2 and mixing with row 3, repeating until row 11 was reached. Using the liquid handler, 194 ul of Daudi media was dispensed into wells B2-B11 through G2-G11 of the Media master plate. Using the liquid handler, 6 ul from the DMSO master plate was aspirated and dispensed into the media master plate, mixing 100 ul twice.\nCompounds from master plate were then added to the culture plate. The culture plates were removed from the incubator, and set inside the biosafety cabinet. Using a liquid handler, 20 ul from wells B2 to B11 through G2 to G11 of master plate were aspirated, and dispensed into wells B2 to B11 through G2 to G11 of culture plate. This set was continued with each culture plate. Once the culture plates acquired their 20 ul of compound dilutions, they were placed back into the incubator, until their reads on Day 7 of experiment.\nCell death was measured on Day 7 of the experiment using Cell-Titer Glo and a Promega Plate reader.", "units": {"EC50": "nM"}}
{"molecule": "CC(C)OC(=O)N[C@H]1CC[C@H](c2ncc(-c3ccc(CN)cc3S(=O)(=O)NC(C)(C)C)s2)CC1", "note": "[Compound 1, isopropyl (trans-4-(5-(4-(aminomethyl)-2-(N-(tert-butyl)sulfamoyl)phenyl)thiazol-2-yl)cyclohexyl)carbamate]", "EC50": "> 10000"}
{"molecule": "CC(=O)NCc1ccc(-c2cnc([C@H]3CC[C@H](NC(=O)OC(C)C)CC3)s2)c(S(=O)(=O)NC(C)(C)C)c1", "note": "[Compound 2, isopropyl (trans-4-(5-(4-(acetamidomethyl)-2-(N-(tert-butyl)sulfamoyl)phenyl)thiazol-2-yl)cyclohexyl)carbamate]", "EC50": "> 10000"}
{"molecule": "CC(C)OC(=O)N[C@H]1CC[C@H](c2ncc(-c3ccc(-c4cnn5ccccc45)cc3S(=O)(=O)NC(C)(C)C)s2)CC1", "note": "[Compound 3, isopropyl (trans-4-(5-(2-(N-(tert-butyl)sulfamoyl)-4-(pyrazolo[1,5-a]pyridin-3-yl)phenyl)thiazol-2-yl)cyclohexyl)carbamate]", "EC50": "100 to 1000"}
{"molecule": "CC(C)OC(=O)N[C@H]1CC[C@H](c2ncc(-c3ccc(-c4cnn(CC(F)(F)F)c4)cc3S(=O)(=O)NC(C)(C)C)s2)CC1", "note": "[Compound 4, isopropyl (trans-4-(5-(2-(N-(tert-butyl)sulfamoyl)-4-(1-(2,2,2-trifluoroethyl)-1H-pyrazol-4-yl)phenyl)thiazol-2-yl)cyclohexyl)carbamate]", "EC50": "100 to 1000"}
{"molecule": "CC(C)OC(=O)N[C@H]1CC[C@H](c2ncc(-c3ccc(-c4cccnc4)cc3S(=O)(=O)NC(C)(C)C)s2)CC1", "note": "[Compound 5, isopropyl (trans-4-(5-(2-(N-(tert-butyl)sulfamoyl)-4-(pyridin-3-yl)phenyl)thiazol-2-yl)cyclohexyl)carbamate]", "EC50": "1000 to 10000"}
{"molecule": "CC(C)OC(=O)N[C@H]1CC[C@H](c2ncc(-c3ccc(-c4cc[nH]n4)cc3S(=O)(=O)NC(C)(C)C)s2)CC1", "note": "[Compound 6, isopropyl (trans-4-(5-(2-(N-(tert-butyl)sulfamoyl)-4-(1H-pyrazol-3-yl)phenyl)thiazol-2-yl)cyclohexyl)carbamate]", "EC50": "1000 to 10000"}
{"molecule": "CC(C)OC(=O)N[C@H]1CC[C@H](c2ncc(-c3ccc(-c4ccc(O)nc4)cc3S(=O)(=O)NC(C)(C)C)s2)CC1", "note": "[Compound 7, isopropyl (trans-4-(5-(2-(N-(tert-butyl)sulfamoyl)-4-(6-hydroxypyridin-3-yl)phenyl)thiazol-2-yl)cyclohexyl)carbamate]", "EC50": "1000 to 10000"}
{"molecule": "COc1ncc(-c2ccc(-c3cnc([C@H]4CC[C@H](NC(=O)OC(C)C)CC4)s3)c(S(=O)(=O)NC(C)(C)C)c2)c(OC)n1", "note": "[Compound 8, isopropyl (trans-4-(5-(2-(N-(tert-butyl)sulfamoyl)-4-(2,4-dimethoxypyrimidin-5-yl)phenyl)thiazol-2-yl)cyclohexyl)carbamate]", "EC50": "100 to 1000"}
{"molecule": "CC(C)OC(=O)N[C@H]1CC[C@H](c2ncc(-c3ccc(-c4ccc5c[nH]nc5c4)cc3S(=O)(=O)NC(C)(C)C)s2)CC1", "note": "[Compound 9, isopropyl (trans-4-(5-(2-(N-(tert-butyl)sulfamoyl)-4-(2H-indazol-6-yl)phenyl)thiazol-2-yl)cyclohexyl)carbamate]", "EC50": "1000 to 10000"}
{"molecule": "CC(C)OC(=O)N[C@H]1CC[C@H](c2ncc(-c3ccc(-c4cnc(N)nc4)cc3S(=O)(=O)NC(C)(C)C)s2)CC1", "note": "[Compound 10, isopropyl (trans-4-(5-(4-(2-aminopyrimidin-5-yl)-2-(N-(tert-butyl)sulfamoyl)phenyl)thiazol-2-yl)cyclohexyl)carbamate]", "EC50": "100 to 1000"}
{"molecule": "CC(C)OC(=O)N[C@H]1CC[C@H](c2ncc(-c3ccc(-c4ccc5occc5c4)cc3S(=O)(=O)NC(C)(C)C)s2)CC1", "note": "[Compound 11, isopropyl (trans-4-(5-(4-(benzofuran-5-yl)-2-(N-(tert-butyl)sulfamoyl)phenyl)thiazol-2-yl)cyclohexyl)carbamate]", "EC50": "1000 to 10000"}
{"molecule": "CC(C)OC(=O)N[C@H]1CC[C@H](c2ncc(-c3ccc(-c4cncnc4)cc3S(=O)(=O)NC(C)(C)C)s2)CC1", "note": "[Compound 12, isopropyl (trans-4-(5-(2-(N-(tert-butyl)sulfamoyl)-4-(pyrimidin-5-yl)phenyl)thiazol-2-yl)cyclohexyl)carbamate]", "EC50": "> 10000"}
